# Results taken from patent US4252956A, “Derivatives of 1,4-dihydropyridine-3-carbothiol acids” (priority 1979, dated 1981).
# Like-named read-outs stand apart in the source and are kept apart here.
# How the values were obtained:
# [1] = system: coronarodilating activity; settings: in vivo; cited from earlier work
# [2] = in vivo; settings: mouse, in vivo, ip; white mice, intraperitoneal; read-out: LD50 for white mice upon intraperitoneal administration
# [3] = system: arterial pressure; experiment: hypotensive effect (arterial pressure, heart activity); type: in vivo; settings: for ED30: read-out: ED30 of the hypotensive effect
# Protocol: (§1) Tests of the compounds according to the present invention were performed in comparison with the prior art coronarodilating agents; carbocromene and ditrimine and with the prior art spasmolytic preparation-papaverine having a myotropic effect.
# [4] = system: coronary blood flow; experiment: recording the volume rate of coronary blood flow in experiments on narcotized cats (coronarodilating activity); type: in vivo; settings: for ED (30-50%): Felis catus, iv, read-out: Dose increasing the coronary blood flow by 30-50%; for Duration of the effect: Table, at the dose increasing the coronary blood flow; for coronarodilating activity: narcotized cats
# Protocol: as §1
# [5] = system: white mice; experiment: in vivo
# [6] = increase of coronary blood flow by 30-50%
SMILES,ED30 [3] [mg/kg],"ED (30-50%) [4, 6] [mg/kg]",Duration of the effect [4] [min],other results
"COC(=O)C1=C(C)NC(C)=C(C(=O)OC)C1c1ccccc1[N+](=O)[O-] [2,6-dimethyl-3,5-dicarbometh-oxy-4-o-nitrophenyl-1,4-dihydropyridine]",–,–,–,coronarodilating activity (prior art) [1]: pronounced coronarodilating activity
"CCSC(=O)C1=C(C)NC(C)=C(C(=O)SCC)C1 [I, Di-S-ethyl ester of 2,6-dimethyl-1,4-dihydropyridine-3,5-dicarbothiol acid]",1.8,1,60 to 90,LD50 [2]: > 4000 mg/kg
"CC1=C(C(=O)SCc2ccccc2)C(c2ccccc2O)C2=C(N1)c1ccccc1C2=O (centres unmarked) [VII, 2-methyl-3-benzylthiocarbonyl-4-o-hydroxyphenyl-5-oxo-1,4-dihydroindeno-(1,2-b)-pyridine]",1,–,–,ED (30-50%) [4]: 0.5 mg/kg; coronarodilating activity [4]: most active
"CCSC(=O)C1=C(C)NC(C)=C(C(=O)SCC)C1c1cccnc1 [II, Di-S-ethyl ester of 2,6-dimethyl-4-m-pyridyl-1,4-dihydropyridine-3,5-dicarbothiol acid]",0.56,0.5,> 120,coronarodilating activity [4]: most active
"CCSC(=O)C1=C(C)NC2=C(C(=O)c3ccccc32)C1c1ccccc1[N+](=O)[O-] (centres unmarked) [X, 2-methyl-3-ethylthiocarbonyl-4-o-nitrophenyl-5-oxo-1,4-dihydroindeno-(1,2-b)-pyridine]",–,3,–,LD50 [2]: > 2000 mg/kg
"COc1cc(C(=O)OCCCN(C)CCN(C)CCCOC(=O)c2cc(OC)c(OC)c(OC)c2)cc(OC)c1OC [Ditrimine, reference compound]",–,–,–,"LD50 for white mice upon intraperitoneal administration [5]: 180 (149-218) mg/kg; ED30 of the hypotensive effect ([3]; in vivo): 1.0 mg/kg; Dose increasing the coronary blood flow by 30-50% [4, 6]: 0.5 mg/kg"
"CCOC(=O)C1=C(C)NC(C)=C(C(=O)SCc2ccccc2)C1C (centres unmarked) [IV, 3-S-benzyl-5-ethyl ester of 2,4,6-trimethyl-1,4-dihydropyridine-3-carbothiol-5-carboxylic acid]",3.45,2 to 4,30 to 60,–
"CCOC(=O)C1=C(C)NC(C)=C(C(=O)SCc2ccccc2)C1c1ccccc1 (centres unmarked) [III, 3-S-benzyl-5-ethyl ester of 4-phenyl-2,6-dimethyl-1,4-dihydropyridine-3-carbothiol-5-carboxylic acid]",1.65,0.5,150,coronarodilating activity [4]: most active
"CC1=C(C(=O)SCc2ccccc2)C(c2ccccc2)C2=C(N1)c1ccccc1C2=O (centres unmarked) [VI, 2-methyl-3-benzylthiocarbonyl-4-phenyl-5-oxo-1,4-dihydroindeno-(1,2-b)-pyridine]",1,–,–,ED (30-50%) [4]: 0.3 mg/kg; coronarodilating activity [4]: most active
"CCSC(=O)C1=C(C)NC2=C(C(=O)c3ccccc32)C1c1ccc([N+](=O)[O-])cc1 (centres unmarked) [IX, 2-methyl-3-ethyl-thiocarbonyl-4-p-nitrophenyl-5-oxo-1,4-dihydroindeno-(1,2-b)-pyridine]",1,3,–,–
"COc1ccc(Cc2nccc3cc(OC)c(OC)cc23)cc1OC [Papaverine, reference compound]",0.27,–,10 to 20,LD50 [2]: 91 mg/kg; ED (30-50%) [4]: 1 mg/kg
"CCOC(=O)COc1ccc2c(C)c(CCN(CC)CC)c(=O)oc2c1 [Carbocromene, reference compound]",–,0.5,–,–
"CCSC(=O)C1=C(C)NC2=C(C(=O)c3ccccc32)C1c1ccccc1O (centres unmarked) [VIII, 2-methyl-3-ethylthiocarbonyl-4-o-hydroxyphenyl-5-oxo-1,4-dihydroindeno-(1,2-b)pyridine]",5,3,–,–
"CCSC(=O)C1=C(C)NC2=C(C(=O)c3ccccc32)C1c1ccccc1 (centres unmarked) [V, 2-methyl-3-ethylthiocarbonyl-4-phenyl-5-oxo-1,4-dihydroindeno-(1,2-b)-pyridine]",3,3,–,–
